Assay results: ChEMBL document CHEMBL5252607, “Synthesis and biological evaluation of coumarin derivatives as selective CYP2A6 inhibitors” (Bioorg Med Chem Lett, 2023)

Columns and labels:
Type in all cases: ADME
[1] = target: T1, Cytochrome P450 3A4 (Homo sapiens, UniProt P08684); experiment: Inhibition of CYP3A4 (unknown origin)
[2] = target: T2, Cytochrome P450 2A6 (Homo sapiens, UniProt P11509); experiment: Inhibition of CYP2A6 (unknown origin)
T2 sequence (P11509 whole entry): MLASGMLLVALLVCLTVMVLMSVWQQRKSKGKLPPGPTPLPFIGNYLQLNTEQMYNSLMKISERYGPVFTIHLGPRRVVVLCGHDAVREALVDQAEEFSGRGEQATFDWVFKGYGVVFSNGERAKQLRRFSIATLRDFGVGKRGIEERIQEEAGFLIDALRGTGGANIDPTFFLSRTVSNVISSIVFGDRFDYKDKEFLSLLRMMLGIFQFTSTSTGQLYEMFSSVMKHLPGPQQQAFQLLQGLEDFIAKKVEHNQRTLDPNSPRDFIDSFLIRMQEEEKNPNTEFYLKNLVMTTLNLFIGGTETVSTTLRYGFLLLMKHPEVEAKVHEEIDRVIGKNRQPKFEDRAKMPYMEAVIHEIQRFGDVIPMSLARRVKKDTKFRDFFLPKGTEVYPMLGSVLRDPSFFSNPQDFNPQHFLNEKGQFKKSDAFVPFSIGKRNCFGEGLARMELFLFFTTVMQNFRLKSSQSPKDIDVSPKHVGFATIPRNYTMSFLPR

[3] = target: T2, Cytochrome P450 2A6; experiment: Competitive inhibition of CYP2A6 (unknown origin)
[4] = system: CYP3A4 / CYP2A6; experiment: Selectivity ratio of Ki for non-competitive inhibition of CYP3A4 (unknown origin) to ratio of Ki for competitive inhibition of CYP2A6 (unknown origin); settings: human; read-out: Ratio Ki
[5] = target: T1, Cytochrome P450 3A4; experiment: Non competitive inhibition of CYP3A4 (unknown origin)
[6] = target: T1, Cytochrome P450 3A4; experiment: Mixed type inhibition of CYP3A4 (unknown origin)
[7] = target: T3, CYP2A6 (Homo sapiens, UniProt P11509); experiment: Inhibition of CYP2A6 (unknown origin) assessed as residual activity preincubated for 10 mins
T3 sequence (P11509 whole entry): T2 sequence (P11509 whole entry)

[8] = system: CYP3A4 / CYP2A6; experiment: Selectivity ratio of Ki for mixed type inhibition of CYP3A4 (unknown origin) to ratio of Ki for competitive inhibition of CYP2A6 (unknown origin); settings: human; read-out: Ratio Ki
[9] = target: T2, Cytochrome P450 2A6; experiment: Mixed type inhibition of CYP2A6 (unknown origin)
[10] = system: CYP3A4 / CYP2A6; experiment: Selectivity ratio of Ki for non-competitive inhibition of CYP3A4 (unknown origin) to ratio of Ki for mixed type inhibition of CYP2A6 (unknown origin); settings: human; read-out: Ratio Ki

T1 sequence (P08684 whole entry): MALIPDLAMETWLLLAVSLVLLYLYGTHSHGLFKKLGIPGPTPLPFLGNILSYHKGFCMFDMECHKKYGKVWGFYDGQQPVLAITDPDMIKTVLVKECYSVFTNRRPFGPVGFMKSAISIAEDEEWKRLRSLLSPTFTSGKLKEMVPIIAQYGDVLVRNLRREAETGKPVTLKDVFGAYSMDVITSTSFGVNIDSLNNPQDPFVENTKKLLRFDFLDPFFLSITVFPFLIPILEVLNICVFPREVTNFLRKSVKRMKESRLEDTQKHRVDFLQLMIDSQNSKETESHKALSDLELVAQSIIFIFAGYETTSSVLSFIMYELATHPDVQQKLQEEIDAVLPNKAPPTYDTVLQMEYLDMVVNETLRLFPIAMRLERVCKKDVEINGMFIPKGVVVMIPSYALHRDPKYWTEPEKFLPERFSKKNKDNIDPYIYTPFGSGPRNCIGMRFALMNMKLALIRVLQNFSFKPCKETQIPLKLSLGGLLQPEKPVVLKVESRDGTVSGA

SMILES	IC50 [1] [nM]	IC50 [2] [nM]	Ki [3] [nM]	selectivity ratio [4]	Ki [5] [nM]	Ki [6] [nM]	activity [7] [%]	selectivity ratio [8]	Ki [9] [nM]	selectivity ratio [10]
CCCOc1cccc2oc(=O)ccc12	> 250000	1060	540							
CCOc1cccc2oc(=O)ccc12		170	80	5300	424000					
C#CCOc1cccc2oc(=O)ccc12		40	10			46600	57	4660		
COc1cccc2oc(=O)ccc12		130			448000				50	8970
COc1c2occc2cc2ccc(=O)oc12 [METHOXSALEN]							52			
COc1cccc2ccc(=O)oc12	> 250000	7470	4000				62			
COc1ccc2oc(=O)ccc2c1	> 250000	200	250							
C=CCOc1cccc2oc(=O)ccc12		50	30			28100		937		
